Like-named read-outs stand apart in the source and are kept apart here. Marks after values point to notes of the source that are not given here.
Key:
[1] = cited from earlier work
[2] = system: Lung A549 cells; set-up: method as in PMID 29258181, PMID 12507923, PMID 35770045, PMID 31488557; conditions: cited from earlier work
[3] = system: Mammary gland MDA-MB-231 cells; set-up: method as in PMID 29258181, PMID 12507923, PMID 35770045, PMID 31488557; conditions: cited from earlier work
[4] = system: Lung NCI-H460 cells; set-up: method as in PMID 29258181, PMID 12507923, PMID 35770045, PMID 31488557; conditions: cited from earlier work
[5] = system: Ovary SKOV3 cells; set-up: method as in PMID 29258181, PMID 12507923, PMID 35770045, PMID 31488557; conditions: cited from earlier work
[6] = system: Pancreas PANC-1 cells; set-up: method as in PMID 29258181, PMID 12507923, PMID 35770045, PMID 31488557; conditions: cited from earlier work
[7] = system: Mammary gland MDA-MB-231 cells; conditions: cited from earlier work; for GI50: ref NCI Database of Screening Results
[8] = system: Ovary SKOV3 cells; conditions: cited from earlier work; for GI50 / TGI: ref NCI Database of Screening Results
[9] = system: human Hec50co (p53-null) endometrial tumor xenografts; conditions: single agent; cited from earlier work
[10] = system: Prostate DU145 cells; set-up: method as in NCI Database of Screening Results; conditions: ref NCI Database of Screening Results; cited from earlier work
[11] = system: Acute promyelocytic HL60 leukemia cells; conditions: cited from earlier work
[12] = system: Lung A549 cells; conditions: cited from earlier work; for GI50 / TGI: ref NCI Database of Screening Results
[13] = system: Prostate PC3 cells; conditions: cited from earlier work
[14] = system: Lung NCI-H460 cells; conditions: cited from earlier work; for GI50 / TGI: ref NCI Database of Screening Results
[15] = system: temperature-dependent p53 mutants; set-up: method as in PMID 11429700, PMID 11870884, PMID 22710932, PMID 17724467; conditions: 11 temperature-dependent mutants analyzed; cited from earlier work
[16] = system: Mammary gland MDA-MB-231 cells; experiment: CyQUANT-NF proliferation assay, 48-h drug treatment; type: cell-based; conditions: Homo sapiens, MDA-MB-231; 48-h treatment; amifostine ND = not definable up to 500 µM
Description: Since the BRG prodrugs are composed of WR1065 as one of the major constituents, assays were conducted to determine if factors reported to modulate the activity of amino acid and polyamine plasma membrane transport systems impacted the efficacy of 4SP65 or 1LP65 in selected cancer cell lines. HL60 cells were exposed to 4SP65 with up to 0.5 mM NaCl, MBA-MD-231 cells were tested in the presence and absence of medium supplemented with estradiol plus insulin (in the BulletKit™ for growth supplements for NHMECs), HCC38 cells were exposed to 4SP65 with and without 10 µM insulin added to the growth medium, and multiple cells lines were pretreated for 24 h with 1 mM DFMO prior to starting exposures to 4SP65.
(§1) The percentage of growth inhibition was calculated as follows: […]

[17] = system: NCI-H1975 NSCLC cells; experiment: cells; conditions: Homo sapiens, NCI-H1975, 48 h
Description: as §1

[18] = system: A549 NSCLC cells; experiment: cells
Description: as §1

[19] = system: Pancreas PANC-1 cells; experiment: cells; conditions: Homo sapiens, PANC-1, 48 h
Description: as §1

[20] = system: Malignant pleural mesothelioma PPMMill cells; experiment: cells; conditions: 48 h
Description: as §1

[21] = system: Ovary SKOV3 cells; experiment: cells
Description: as §1

[22] = system: Prostate PC3 cells; experiment: cells
Description: as §1

[23] = system: Prostate LNCaP cells; experiment: cells; conditions: Homo sapiens, LNCaP, 48 h
Description: as §1

[24] = system: human cancer cell lines; experiment: cells; conditions: for cytolytic effects: exposure levels up to 500 µM, 48 h; for GI50: Homo sapiens
Description: as §1

[25] = system: Prostate DU145 cells; experiment: cells; conditions: Homo sapiens, DU-145, 48 h
Description: as §1

[26] = system: Ovary TOV21G cells; experiment: cells
Description: as §1

[27] = system: Mammary gland HCC38 cells; experiment: CyQUANT-NF proliferation assay, 48-h drug treatment; type: cell-based; conditions: 48-h treatment, amifostine ND = not definable up to 500 µM
[28] = system: Malignant pleural mesothelioma HMESO1 cells; conditions: drug alone, 48 h, 4SP65/cisplatin study
Description: as §1

[29] = system: NCI-H460 NSCLC cells; conditions: drug alone, 48 h, 4SP65/cisplatin study
Description: To test anticancer effectiveness of individual drugs or drug combinations, the CyQUANT®-NF proliferation assay was used with a plate reader (i) to generate standard curves for cell numbers for each cell line, (ii) to measure the starting cell numbers at initiation of drug treatment, and (iii) to obtain fluorescence readings from cells in 96-well plates for comparisons to a standard curve for the relevant cancer cell line and quantifying cell viability after drug treatments. […] Trypan blue exclusion was used to estimate cell numbers in a few pilot experiments and thereafter was applied to confirm very low viable cell numbers and cell death.
A series of experiments was conducted to determine the relative efficacy of 4SP65, 1LP65, and amifostine as single agents in the same human cancer cell lines.
Five metrics were calculated and used to characterize the shape of the dose-response curve following exposure to a single test agent. Using cell numbers based on fluorescence measurements and standard curves, the percentage growth was calculated at each drug concentration level. The percentage of growth inhibition was calculated as follows:
where Tz = cell numbers or fluorescence counts at time xero, C = vehicle-exposed control cell numbers at the end of the assessment time period, and Ti = test agent-exposed cell numbers or fluorescence counts at each drug concentration. […] The LC50/99 was calculated using Equation 2 = -50 and Eq. 2 = -99, respectively. […] For NHMECs, the relationships between drug exposure levels and fluorescence units were used to define dose-response metrics. The selectivity index values for individual drugs were calculated using IC50 levels in NHMECs divided by the IC50 value for each cancer cell line. Statistical comparisons of differences in individual dose-response metrics between drug treatments and cell lines were conducted using Student’s t-test, with P-values <0.05 considered significant.
Relative cell growth inhibition values for differing levels of each drug alone and in combination were input into SynergyFinder to generate dose-response curves for each drug alone and to produce a dose-response matrix. The dose-response matrix data then were used in generating a two-dimension heatmap and three-dimension volcano plot to visualize the distribution of areas of differing degrees of synergism and to calculate average and maximum synergy scores in selected human cancer cell lines. The expected drug combination responses were calculated using both the Highest Single Agent (HSA) model and the Zero interaction potency (ZIP) model.

[30] = system: Lung NCI-H1975 cells; set-up: method as in PMID 29258181, PMID 12507923, PMID 35770045, PMID 31488557; conditions: cited from earlier work
[31] = system: Acute promyelocytic HL60 leukemia cells; set-up: method as in PMID 29258181, PMID 12507923, PMID 35770045, PMID 31488557; conditions: cited from earlier work
[32] = ref NCI Database of Screening Results
[33] = ND = not definable, highest concentration in parentheses
[34] = drug alone, 48 h, 4SP65/cisplatin study
[35] = drug alone, 4SP65/cisplatin study
[36] = drug alone, 4SP65/cisplatin study, ND = not definable, highest concentration in parentheses
[37] = drug alone, 48 h, 4SP65/cisplatin study, ND = not definable, highest concentration in parentheses

COc1cc2ncnc(Nc3ccc(F)c(Cl)c3)c2cc1OCCCN1CCOCC1 [GEF, gefitinib, reference compound]
trough levels ([1]; 250 mg daily, after 3 days of treatment): 0.257−4.50 µM
trough levels ([1]; 250 mg daily, after 8 days of treatment): 0.282−6.55 µM
Cmax ([1]; 250 mg daily, printed 'or more', read-out: Cmax plasma concentrations): 500 to 1000 nM
elimination half-life [1]: 48 h

O=C1C2CCN(CC2)C1(CO)CO [PRIMA-1]
GI50 [2]: 63 µM
IC50 [3]: 141 µM
GI50 [4]: 40 µM
GI50 [5]: 63 µM
IC50 [6]: 66 µM

CC(=O)O[C@H]1C(=O)[C@@]2(C)[C@H]([C@H](OC(=O)c3ccccc3)[C@]3(O)C[C@H](OC(=O)[C@H](O)[C@@H](NC(=O)c4ccccc4)c4ccccc4)C(C)=C1C3(C)C)[C@]1(OC(C)=O)CO[C@@H]1C[C@@H]2O [Paclitaxel, paclitaxel]
CC50 [7]: > 100 µM
GI50 [7]: 6.4 µM
CC50 [8]: > 100 µM
GI50 [8]: 0.52 µM
TGI [8]: 5.2 µM
inhibition of tumor xenograft growth compared to tumor size at start of treatment [9]: ~ 50%
GI50 [10]: 1.9 µM
TGI [10]: >100 µM
CC50 [11]: > 100 µM
GI50 [11, 32]: 25.8 µM
TGI [11, 32]: >100 µM
CC50 [12]: > 100 µM
GI50 [12]: 9.2 µM
TGI [12]: >100 µM
CC50 [13]: > 100 µM
GI50 [13, 32]: 36.4 µM
TGI [13, 32]: >100 µM
CC50 [14]: > 100 µM
GI50 [14]: 5.8 µM
TGI [14]: 90.4 µM

NCCCNCCS [WR1065, 2-[(3-aminopropyl)amino]ethanethiol]
p53 mutants reactivated to some degree [15]: 8/11

NCCCNCCSP(=O)(O)O [Amifostine, amifostine, reference compound]
inhibition of tumor xenograft growth compared to tumor size at start of treatment [9]: ~ 50%
GI50 [16]: 241 ± 130 µM
GI50 [17]: 130 ± 26 µM
GI50 ([18]; Homo sapiens, A549, 48 h): 241 ± 130 µM
IC50 ([18]; Homo sapiens, A549, 48 h): 261 ± 120 µM
GI50 [19]: 113 ± 39 µM
GI50 ([20]; Homo sapiens): 378 ± 122 µM
GI50 ([21]; Homo sapiens, SK-OV-3, 48 h): 81 ± 13 µM
IC50 ([21]; Homo sapiens, SK-OV-3, 48 h): 294 ± 119 µM
TGI ([22]; 48-h treatment, amifostine ND = not definable up to 500 µM): 301 ± 115 µM
GI50 ([22]; Homo sapiens, PC-3, 48 h): 53 ± 10 µM
IC50 ([22]; Homo sapiens, PC-3, 48 h): 103 ± 15 µM
GI50 [23]: 150 ± 47 µM
IC50 [23]: 378 ± 122 µM
LC50 [24]: Not definable ^k
cancer cell lines with limited cytostatic effects ([24]; 14 cell lines): 11/14
cytolytic effects ([24]; 14 cell lines): no cytolytic effects
cytolytic effects ([24]; 14 cell lines, listed as amifostine): not found in any cell line
LC99 ([24]; 14 cell lines, highest concentration 500 µM): Not definable ^k
GI50 ([24]; read-out: GI50 average, GI50 values >100 µM in 7/14 cell lines): 149 µM
GI50 ([24]; read-out: GI50 range, GI50 values <100 µM in 4/14 cell lines: HCC38, PC3, SKOV3, TOV21G): 47 to 81 µM
GI50 ([24]; read-out: GI50 range, seven of 14 cell lines): 113 to 378 µM
GI50 ([24]; read-out: average GI50, four cell lines where amifostine GI50 <100 µM): 64.8 µM
TGI average ([24]; only two cell lines, HCC38 and PC3): 278 ± 24 ^j µM
GI50 [25]: 126 ± 28 µM
IC50 [25]: 319 ± 105 µM
GI50 ([26]; Homo sapiens, TOV21G, 48 h): 47 ± 10 µM
IC50 ([26]; Homo sapiens, TOV21G, 48 h): 57 ± 9 µM
TGI [27]: 254 ± 123 µM
GI50 ([27]; Homo sapiens, HCC38): 78.1 ± 35.7 µM
IC50 ([27]; Homo sapiens, HCC38): 276 ± 92 µM

N.N.[Cl][Pt][Cl] [Cisplatin, cisplatin, reference compound]
GI50 [7]: 22.4 µM
GI50 [8]: 2.5 µM
TGI [8]: >100 µM
GI50 [28]: 3 ± 0.4 µM
IC50 [28]: 8.6 ± 1.1 µM
TGI [28]: 6.7 ± 0.7 µM
LC99 [28, 33]: ND (>15) µM
GI50 [10]: 2 µM
gains of cytostatic and cytolytic activities, range ([18]; 4SP65-cisplatin combined): 1.7- to 3.5 fold
LC99, drug in combination (CMB) ([18]; amount of each drug in combination, ratio 50% 4SP65:50% DDP, 48 h): 7 µM
GI50 [18, 34]: 3.5 ± 0.7 µM
IC50 [18, 34]: 4.7 ± 0.8 µM
LC99 [18, 34]: 24.4 ± 2.6 µM
TGI [18, 34]: 8.2 ± 1.0 µM
GI50 [20, 35]: 27.2 ± 3.4 µM
IC50 [20, 35]: 40.5 ± 8.1 µM
LC99 [20, 36]: ND (>100) µM
TGI [20, 36]: ND (>100) µM
GI50 [21, 34]: 5.3 ± 0.4 µM
IC50 [21, 34]: 6.7 ± 0.6 µM
LC99 [21, 37]: ND (>21) µM
TGI [21, 37]: ND (>21) µM
gains of cytostatic and cytolytic activities, range ([24]; 4SP65-cisplatin combined, H460, HMESO1, PPMMill, SKOV3): 1.7- to 6.9 fold
gains in total growth inhibition and cytolytic effects, range ([26]; 4SP65-cisplatin combined): 1.3- to 2.9 fold
LC99, drug in combination (CMB) ([26]; amount of each drug in combination, ratio 14% 4SP65:86% DDP, 48 h): 5.9 µM
GI50 [26, 34]: 2.2 ± 0.4 µM
IC50 [26, 34]: 3 ± 0.3 µM
LC99 [26, 34]: 17.2 µM
TGI [26, 34]: 6.7 ± 0.3 µM
LC99 ([26]; drug alone, 48 h, 4SP65/cisplatin study, listed as DDP): 17.2 ± 5.2 µM
GI50 [12]: 3.8 µM
TGI [12]: >100 µM
GI50 [29]: 3.1 ± 0.1 µM
IC50 [29]: 4 ± 0.1 µM
LC99 [29, 33]: ND (>15) µM
TGI [29, 33]: ND (>15) µM
GI50 [13, 32]: 5 µM
GI50 [14]: 0.6 µM
TGI [14]: >100 µM

COCC1(CO)C(=O)C2CCN1CC2 (stereo not drawn) [APR-246]
IC50 [2]: 29 µM
IC50 [30]: 9.6 µM
IC50 [31]: ~20 µM
IC50 [4]: 225 µM
IC50 [5]: 16.7 µM

From article PMC10419174, “WR1065 conjugated to thiol-PEG polymers as novel anticancer prodrugs: broad spectrum efficacy, synergism, and drug resistance reversal” (Frontiers in Oncology, 2023)
